According to paper PMC9785397, “Exploiting Conserved Quorum Sensing Signals in Streptococcus mutans and Streptococcus pneumoniae” (Microorganisms, 2022):
Converted amounts (≈) assume the structure as drawn. Where a name gives a salt, the structure may show the parent alone.

Tests used:
comE gene = assay: qRT-PCR, comE gene expression; format: cell-based, Streptococcus mutans; settings: analog 20 μM with CSP1 20 μM, planktonic, 8 h, qPCR
Description: (§1) S. mutans was cultured in BHI supplemented with peptides or the vehicle. Cultures were centrifuged, and total RNA was isolated and purified from the bacterial pellets using the GRS Total RNA Kit—Bacteria (GK16.0100; GRISP Research Solution, Porto, Portugal), following the manufacturer’s instructions. Purified RNA was subjected to DNase I treatment to remove contaminating DNA. The RNA yield and purity were assessed by measuring the absorbance, and only samples with a ratio of 260/280 nm in the 1.8–2 range were used. cDNA was generated using the cDNA RT kit with an RNAse inhibitor (Applied Biosystems; Monza, Milan). Quantitative PCR (qRT-PCR) was performed using SYBR green mixture (iScript One Step RT-PCR kit; Bio-Rad, Segrate, Milan) to determine the transcript levels of genes using the oligonucleotides listed in Table 3. The gyrA gene served as the housekeeping gene.

comD gene = assay: qRT-PCR, comD gene expression; format: cell-based, Streptococcus mutans; settings: analog 20 μM with CSP1 20 μM, planktonic, 8 h, qPCR
Description: as §1

F. nucleatum = assay: microbe, parasite or virus in culture; format: cell-based, Fusobacterium nucleatum; settings: 16 h; for Minimum inhibitory concentration (MIC), F. nucleatum: peptides 0–50 μM, 37 °C, anaerobic, A620 nm, three separate experiments
Excerpt: (§2) Streptococcus mutans Clarke (strain designation NCTC 10449), Pseudomonas aeruginosa (Schroeter) Migula (strain designation PAO1), Fusobacterium nucleatum, subspecies nucleatum (strain VPI 4355), and Porphyromonas gingivalis (strain 2561) were purchased from ATCC (LGC Standards Srl, Milan, Italy). Streptococcus mitis, Streptococcus oralis, and Streptococcus sanguinis were obtained from clinical isolates and characterized by morphological, biochemical, and molecular typing. S. mutans, S. mitis, S. oralis, and S. sanguinis were maintained in Brain Heart Infusion (BHI) broth or agar under microaerophilic conditions. P. aeruginosa was maintained in trypticase soy (TS) agar or broth. F. nucleatum was maintained in TS agar or broth with defibrinated sheep blood under anaerobic conditions. P. gingivalis was maintained in ATCC Medium 2722 supplemented with TS broth or agar under anaerobic conditions. Before the experiments, bacterial cultures were inoculated in fresh media (dilution 1:100) and grown for 16 h at 37 °C.
(§3) The antimicrobial activities of the tested peptides were assessed through the determination of the minimum inhibitory concentration (MIC) standardized by the Clinical and Laboratory Standards Institute. Bacterial inocula were diluted in 10 mL of MHB […]. The concentration of the bacteria was adjusted to 0.5 McFarland standard, and the bacteria were dispensed in 96-well microtiter plates (final bacterial concentration: 1 × 10^4 CFU/well). Peptides were dissolved in sterile water (stock concentration: 2 mM) and added at final concentrations ranging from 0 to 50 µM. Plates were incubated at 37 °C for 16 h. At the end of incubation, bacterial growth was recorded using a microplate reader (Varioskan Lux Reader; Thermo Fisher Scientific, Milan, Italy) by quantifying the adsorption at 620 nm. Cultures were then opportunely diluted and seeded on agar plates. Bacterial cultures inoculated with the highest final concentration of the vehicle (sterile water) or chlorhexidine hydrochloride salt (CHX, concentration range: 0.05 to 500 μg/mL; Merck, Milan, Italy) were included as controls in each test. Experiments were performed in triplicate.

[1] = tested on: S. mutans bacteriocin production against S. oralis; assay: Bacteriocin overlay assay, S. mutans spotted on S. oralis; format: cell-based, Streptococcus mutans; settings: analog 20 μM with CSP1 20 μM, 16 h, p < 0.05 vs CSP1
Description: (§4) During the formation of complex biofilm such as dental plaque, the ability of S. mutans to compete with other commensal species determines the success of the cariogenesis process. S. mutans uses antibacterial peptides, namely, bacteriocins, to overcome and subvert the composition of dental microbiota. We investigated the production of bacteriocins using the overlay assay. Overnight cultures of S. mitis, S. oralis, S. sanguinis, P. aeruginosa, F. nucleatum, or P. gingivalis were diluted 1:100 in BHI or TS broth and incubated at 37 °C until they reached an OD620 of 0.3. Cultures were added with agar (BD Difco^TM Agar) at the final concentration of 1.5% w/v and transferred in plates. Overnight cultures of S. mutans were diluted 1:100 in BHI and added with peptides (20 μM) or the vehicle with or without CSP1. Culture media were supplemented with agar to reach the final concentration of 0.7% w/v. The solutions were spotted on the surface of agar plates prepared as described above. The plates were kept on the benchtop for 30 min, allowing the agar containing S. mutans to solidify, and then incubated at 37 °C for 16 h under microaerophilic or anaerobic conditions, as required.
(§5) Spots (10 for each experimental group) were acquired and analyzed using NIH Image J software (version 1.53t August 2022, https://imagej.nih.gov/ij/index.html; accessed on 7 September 2022). The appearance of a clear area on the plate (bacterial growth inhibition) was evaluated as indicative of bacteriocin activity. The diameters of the area were measured in a blinded fashion.

bip gene = assay: qRT-PCR, bip gene expression; format: cell-based, Streptococcus mutans; settings: analog 20 μM with CSP1 20 μM, 8 h, qPCR, p < 0.05 vs CSP1
Description: as §1

P. aeruginosa = assay: microbe, parasite or virus in culture; format: cell-based, Pseudomonas aeruginosa; settings: 16 h; for Minimum inhibitory concentration (MIC), P. aeruginosa: peptides 0–50 μM, 37 °C, aerobic, A620 nm, three separate experiments
Excerpt: as §2, §3

P. gingivalis = assay: microbe, parasite or virus in culture; format: cell-based, Porphyromonas gingivalis; settings: 16 h; for Minimum inhibitory concentration (MIC), P. gingivalis: peptides 0–50 μM, 37 °C, anaerobic, A620 nm, three separate experiments
Excerpt: as §2, §3

S. oralis = assay: microbe, parasite or virus in culture; format: cell-based, Streptococcus oralis; settings: for Minimum inhibitory concentration (MIC), S. oralis: peptides 0–50 μM, 37 °C, microaerophilic, A620 nm, three separate experiments
Excerpt: as §2, §3

[2] = tested on: S. mutans bacteriocin production against S. sanguinis; assay: Bacteriocin overlay assay, S. mutans spotted on S. sanguinis; format: cell-based, Streptococcus mutans; settings: analog 20 μM with CSP1 20 μM, 16 h, p < 0.05 vs CSP1
Description: as §4, §5

[3] = tested on: S. mutans bacteriocin production against S. mitis; assay: Bacteriocin overlay assay, S. mutans spotted on S. mitis; format: cell-based, Streptococcus mutans; settings: analog 20 μM with CSP1 20 μM, 16 h, p < 0.05 vs CSP1
Description: as §4, §5

S. mitis = assay: microbe, parasite or virus in culture; format: cell-based, Streptococcus mitis; settings: for Minimum inhibitory concentration (MIC), S. mitis: peptides 0–50 μM, 37 °C, microaerophilic, A620 nm, three separate experiments
Excerpt: as §2, §3

S. mutans = assay: microbe, parasite or virus in culture; format: cell-based, Streptococcus mutans; settings: for Minimum inhibitory concentration (MIC), S. mutans: peptides 0–50 μM, 37 °C, microaerophilic, A620 nm, three separate experiments
Excerpt: as §2, §3

S. sanguinis = assay: microbe, parasite or virus in culture; format: cell-based, Streptococcus sanguinis; settings: for Minimum inhibitory concentration (MIC), S. sanguinis: peptides 0–50 μM, 37 °C, microaerophilic, A620 nm, three separate experiments
Excerpt: as §2, §3

[4] = tested on: S. mutans biofilm formation; assay: Biofilm formation (crystal violet); format: cell-based, Streptococcus mutans; settings: CHX 0.63 μg/mL, 72 h, stimuli renewed every 24 h
Description: (§6) Overnight cultures of S. mutans were diluted 1:1000 in a 1:10 solution of BHI broth supplemented with 0.2% w/v sucrose and artificial saliva (AS; 1.3 g/L KCl, 0.1 g/L NaCl, 0.05 g/L MgCl, 0.1 g/L CaCl2, 0.5 g/L peptone, 25 μg/L NaF, 27 mg/L KH2PO4, 35 mg/L K2HPO4, pH 6.8; all reagents purchased from Merck). Cultures were seeded into 96-well polystyrene microtiter plates (200 µL/well) and incubated at 37 °C under static conditions. To identify the time of incubation that is useful in obtaining a mature biofilm, plates were incubated for 16, 24, 48, 72, or 96 h. Half of the media was renewed every 24 h. At the end of incubations, the wells were emptied and washed three times with sterile PBS to remove planktonic cells. Adhering cells were incubated with resazurin 0.01% in the dark at 37 °C for 20 min [30]. In metabolically active cells, the non-fluorescent resazurin was reduced to highly fluorescent resorufin by dehydrogenase enzymes. The relative fluorescence units (RFU) of resorufin were measured using a fluorimeter (Ex = 530–570 nm, Em = 590–620 nm; Varioskan Lux Reader; Thermo Fisher Scientific).
(§7) To assess the effect of the compounds on biofilm formation or mature biofilm, cultures of S. mutans were prepared as described above. […] The optical density was measured at 570 nm using a microplate reader (Varioskan Lux Reader; Thermo Fisher Scientific). […]

S. mutans mature biofilm = assay: Mature biofilm (crystal violet); format: cell-based, Streptococcus mutans; settings: CHX 0.63 μg/mL added at 48 h, biofilm assessed 24 h later
Description: as §6, §7

[5] = CHX, microdilution method and colony counting assay

Compound | Effect on the expression of comE induced by CSP1 (comE gene) | Effect on the expression of comD induced by CSP1 (comD gene) | Minimum inhibitory concentration (MIC), F. nucleatum (F. nucleatum) [µM] | Effect on the CSP1-induced antibacterial effects against S. oralis [1] | Effect on the CSP1-induced expression of bip (bip gene) | Minimum inhibitory concentration (MIC), P. aeruginosa (P. aeruginosa) [µM] | Minimum inhibitory concentration (MIC), P. gingivalis (P. gingivalis) [µM] | Minimum inhibitory concentration (MIC), S. oralis (S. oralis; 16 h) [µM] | Effect on the CSP1-induced antibacterial effects against S. sanguinis [2] | Effect on the CSP1-induced antibacterial effects against S. mitis [3] | Minimum inhibitory concentration (MIC), S. mitis (S. mitis; 16 h) [µM] | Minimum inhibitory concentration (MIC), S. mutans (S. mutans; 16 h) [µM] | Minimum inhibitory concentration (MIC), S. sanguinis (S. sanguinis; 16 h) [µM] | other results
CC[C@H](C)[C@H](NC(=O)[C@H](Cc1ccccc1)NC(=O)[C@H](CC(=O)O)NC(=O)[C@H](CCCNC(=N)N)NC(=O)[C@H](Cc1ccccc1)NC(=O)[C@H](Cc1ccccc1)NC(=O)[C@H](CCCCNC(C)=O)NC(=O)[C@H](CO)NC(=O)[C@H](CC(C)C)NC(=O)[C@H](CCCNC(=N)N)NC(=O)[C@H](CCSC)NC(=O)[C@H](CCC(=O)O)NC(C)=O)C(=O)N[C@@H](CC(C)C)C(=O)N[C@@H](CCC(N)=O)C(=O)N[C@@H](CCCNC(=N)N)C(=O)N[C@@H](CCCCNC(C)=O)C(=O)N[C@@H](CCCCNC(C)=O)C(=O)O [Ac4CSP1] | inhibited the expression | inhibited the expression | >50 | significantly reduced | significantly reduced | >50 | >50 | 23 (≈ 55.5 µg/mL) | significantly reduced | significantly reduced | 28 (≈ 67.5 µg/mL) | 26 (≈ 62.7 µg/mL) | 25 (≈ 60.3 µg/mL) | 
CC[C@H](C)[C@H](NC(=O)[C@H](Cc1ccccc1)NC(=O)[C@H](CC(=O)O)NC(=O)[C@H](CCCNC(=N)N)NC(=O)[C@H](Cc1ccccc1)NC(=O)[C@H](Cc1ccccc1)NC(=O)[C@H](CCCCN)NC(=O)[C@H](CO)NC(=O)[C@H](CC(C)C)NC(=O)[C@H](CCCNC(=N)N)NC(=O)[C@H](CCSC)NC(=O)[C@H](CCC(=O)O)NC(C)=O)C(=O)N[C@@H](CC(C)C)C(=O)N[C@@H](CCC(N)=O)C(=O)N[C@@H](CCCNC(=N)N)C(=O)N[C@@H](CCCCN)C(=O)N[C@@H](CCCCN)C(=O)O [AcCSP1] | inhibited the expression | inhibited the expression | >50 | significantly reduced | significantly reduced | >50 | >50 | 21 (≈ 48 µg/mL) | significantly reduced | significantly reduced | 24 (≈ 54.8 µg/mL) | 20 (≈ 45.7 µg/mL) | 27 (≈ 61.7 µg/mL) | 
[H]/N=C(\N/C(=N/[H])NCCCCCCNC(=N)NC(=N)Nc1ccc(Cl)cc1)Nc1ccc(Cl)cc1 [CHX, chlorhexidine hydrochloride salt] |  |  |  |  |  |  |  |  |  |  |  |  |  | MIC (F. nucleatum; Fusobacterium nucleatum, read-out: Minimum inhibitory concentration (MIC), F. nucleatum): 300 µg/mL; MIC (P. aeruginosa; Pseudomonas aeruginosa, read-out: Minimum inhibitory concentration (MIC), P. aeruginosa): 1.68 µg/mL; Reduction of biofilm formation vs. vehicle [4]: 70%; MIC (P. gingivalis; Porphyromonas gingivalis, read-out: Minimum inhibitory concentration (MIC), P. gingivalis): 254 µg/mL; Concentration inducing bactericidal activity, S. oralis (S. oralis; [5]): below 1 μg/mL; MIC (S. oralis; Streptococcus oralis, 16 h, read-out: Minimum inhibitory concentration (MIC), S. oralis): 0.57 µg/mL; Reduction of mature biofilm vs. vehicle (S. mutans mature biofilm): 54%; Concentration inducing bactericidal activity, S. mitis (S. mitis; [5]): below 1 μg/mL; MIC (S. mitis; Streptococcus mitis, 16 h, read-out: Minimum inhibitory concentration (MIC), S. mitis): 0.5 µg/mL; Concentration inducing bactericidal activity, S. mutans (S. mutans; [5]): below 1 μg/mL; MIC (S. mutans; Streptococcus mutans, 16 h, read-out: Minimum inhibitory concentration (MIC), S. mutans): 0.63 µg/mL; Concentration inducing bactericidal activity, S. sanguinis (S. sanguinis; [5]): below 1 μg/mL; MIC (S. sanguinis; Streptococcus sanguinis, 16 h, read-out: Minimum inhibitory concentration (MIC), S. sanguinis): 0.69 µg/mL
